Measurements reported in PMC7037682, “Herb–Drug Interaction of Red Ginseng Extract and Ginsenoside Rc with Valsartan in Rats” (Molecules, 2020).
Read-outs that look alike come from different tables or passages of the source.

Experiments:
OATP1B3 = biological target: T1, OATP1B3 (Homo sapiens, UniProt Q9NPD5); test: Inhibition of OATP1B3-mediated [3H]estradiol-17β-D-glucuronide uptake in HEK293-OATP1B3 cells
T1 sequence (Q9NPD5 1-702): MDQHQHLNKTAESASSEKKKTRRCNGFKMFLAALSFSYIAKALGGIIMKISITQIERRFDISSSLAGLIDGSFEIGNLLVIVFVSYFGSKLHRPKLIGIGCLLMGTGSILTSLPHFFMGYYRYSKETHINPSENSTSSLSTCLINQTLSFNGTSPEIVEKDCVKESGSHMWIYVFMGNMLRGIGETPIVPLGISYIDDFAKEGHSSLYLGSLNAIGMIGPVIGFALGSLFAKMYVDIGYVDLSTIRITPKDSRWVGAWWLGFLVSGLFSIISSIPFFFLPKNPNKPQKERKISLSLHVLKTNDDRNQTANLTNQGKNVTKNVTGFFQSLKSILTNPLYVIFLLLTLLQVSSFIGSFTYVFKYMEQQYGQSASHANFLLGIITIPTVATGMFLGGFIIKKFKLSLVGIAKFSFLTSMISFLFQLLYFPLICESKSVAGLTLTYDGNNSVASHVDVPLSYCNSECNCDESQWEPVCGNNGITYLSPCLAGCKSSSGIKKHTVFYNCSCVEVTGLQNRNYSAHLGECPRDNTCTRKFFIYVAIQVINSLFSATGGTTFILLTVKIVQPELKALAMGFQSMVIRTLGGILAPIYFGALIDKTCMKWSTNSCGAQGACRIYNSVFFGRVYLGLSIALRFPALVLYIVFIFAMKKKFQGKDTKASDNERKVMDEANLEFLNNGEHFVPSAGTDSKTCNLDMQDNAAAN
Method: HEK293 cells overexpressing the OCT1, OCT2, OAT1, OAT3, OATP1B1, and OATP1B3 transporters (HEK293-OCT1, -OCT2, -OAT1, -OAT3, -OATP1B1, and -OATP1B3, respectively) and HEK293-mock cells (Corning Life Sciences; Woburn, MA, USA) were used and characterized as previously described.
HEK293 cells overexpressing drug transporters and HEK293-mock cells were seeded in poly-D-lysine-coated 96-well plates at a density of 10^5 cells/well and were cultured in DMEM supplemented with 10% FBS, 5 mM non-essential amino acids, and 2 mM sodium butyrate in a humidified atmosphere with 8% CO2 at 37 °C.
To examine the effects of ginsenosides and typical inhibitors on transporter activity, aliquots (100 μL) of HBSS containing the probe substrate and ginsenosides or typical inhibitors were added to the cells after aspirating pre-incubated HBSS. The concentrations and probe substrates were as follows: 0.1 μM [^3H]MPP^+ for OCT1 and OCT2, 0.1 μM [^3H]PAH for OAT1, 0.1 μM [^3H]ES for OAT3 and OATP1B1, and 0.1 μM [^3H]EG for OATP1B3. […] Then the uptake of probe substrates into HEK293-mock cells and HEK293-OCT1, -OCT2, -OAT1, -OAT3, -OATP1B1, and -OATP1B3 cells in the presence and absence of typical inhibitor or each ginsenoside with previously described concentration range was measured for 5 min. Immediately after placing the plates on ice, the cells were washed three times with 100 μL of ice-cold HBSS, followed by lysing with 50 μL of 10% SDS solution and mixing with 150 μL of Optiphase cocktail solution (Perkin Elmer Inc., Boston, MA, USA). The radioactivity of the probe substrates in the cells was determined using a liquid scintillation counter.
In the inhibition studies, the uptake rate of substrate by HEK293 cells overexpressing the respective transporters was used as the control (100%) and the uptake rate of substrates in the presence of typical inhibitors or ginsenosides expressed as a percentage of the control. The inhibition data were fitted to an inhibitory effect model using Sigma plot (version 10.0; Systat Software Inc., San Jose, CA, USA). IC50 value indicated the half-maximal inhibitory concentration of the inhibitor.

[1] = Protein binding in rat plasma by rapid equilibrium dialysis; format: in vitro ADME; conditions: rapid equilibrium dialysis 4 h 37 °C
Method: (§1) The protein binding of Rb1, Rb2, and Rc (1 μM) in rat plasma and liver homogenate was determined using a rapid equilibrium dialysis kit (ThermoFisher Scientific Korea, Seoul, Korea) according to the manufacturer’s instructions. Briefly, 100 μL of rat plasma and 10% liver homogenate samples containing Rb1, Rb2, or Rc (1 μM) were added to the sample chamber of a semipermeable membrane (molecular weight cut-off 8000 Da) and 300 μL of HBSS was added to the outer buffer chamber. Four hours after incubation at 37 °C on a shaking incubator at 300 rpm, aliquots (50 μL) were collected from both the sample and buffer chambers and treated with equal volumes of fresh HBSS and plasma, respectively, to match the sample matrices. The matrix-matched samples (100 μL) were mixed with 300 μL of 80% ice-cold methanol containing berberine 0.05 ng/mL and 0.1% formic acid for 15 min.
Plasma protein binding was calculated using the following equation [47]. (1) Undiluted free drug fraction fu= Drug concentration in buffer chamber/Drug concentration in plasma chamber

[2] = Protein binding in rat liver homogenate by rapid equilibrium dialysis; format: in vitro ADME; conditions: 10% liver homogenate, rat liver homogenate (10%)
Method: as §1
Tissue protein binding was calculated using the following equations, and a dilution factor (D as a value of 10) was used since we used 10% liver homognenates. (2) Diluted free drug fraction fu^′= Drug concentration in buffer chamber/Drug concentration in liver homogenate chamber (3) Undiluted free drug fraction fu= 1/D/1/fu^′−1+1/D= 0.1/1/fu^′−1+0.1

[3] = repeated red ginseng extract 3 g/day ref 14, 41; cited from earlier work
UGT1A9 = conditions: cited from earlier work; for IC50: read-out: IC50 UGT1A9
[4] = read-out: IC50 OATP1B3, HEK293-OATP1B3, 0.1 μM [3H]EG uptake, 5 min
[5] = HEK293-OATP1B3, 0.1 μM [3H]EG uptake, 5 min

Question: For `CC(C)=CCCC(C)(O)[C@H]1CC[C@]2(C)[C@@H]1[C@H](O)C[C@@H]1[C@@]3(C)CC[C@H](O)C(C)(C)[C@@H]3CC[C@]12C` (stereo in doubt) [PPD, protopanaxadiol], which IC50 (OATP1B3; [4]) is on record?
Answer: Its IC50 is greater than 100 µM.

Question: Which IC50 (OATP1B3; [4]) does the source give for `CC(C)=CCC[C@](C)(O[C@@H]1O[C@H](CO)[C@@H](O)[C@H](O)[C@H]1O)[C@H]1CC[C@]2(C)[C@@H]1[C@H](O)C[C@@H]1[C@@]3(C)CC[C@H](O)C(C)(C)[C@@H]3CC[C@]12C` [Compound K, compound K] here?
Answer: The IC50 was 8.25 µM.

Question: With `CC(C)=CCC[C@](C)(O)[C@H]1CC[C@]2(C)[C@@H]1[C@H](O)C[C@@H]1[C@@]3(C)CC[C@H](O)C(C)(C)[C@@H]3[C@@H](O)C[C@]12C` [PPT, protopanaxatriol] as the compound, how does the IC50 (OATP1B3; [4]) read?
Answer: Its IC50 is 20.3 µM.

Question: What does the source list for `CC(C)=CCC[C@](C)(O[C@@H]1O[C@H](CO[C@@H]2O[C@H](CO)[C@@H](O)[C@H](O)[C@H]2O)[C@@H](O)[C@H](O)[C@H]1O)[C@H]1CC[C@]2(C)[C@@H]1[C@H](O)C[C@@H]1[C@@]3(C)CC[C@H](O[C@@H]4O[C@H](CO)[C@@H](O)[C@H](O)[C@H]4O[C@@H]4O[C@H](CO)[C@@H](O)[C@H](O)[C@H]4O)C(C)(C)[C@@H]3CC[C@]12C` [Rb1, ginsenoside Rb1]?
Answer: fraction unbound at 4 h, 1 μM [1]: 0.002; fraction unbound at 4 h, 1 μM [2]: 0.004; maximum concentration in human blood [3]: 6.2 to 12.7 nM; IC50 (UGT1A9): 21.3 µM; IC50 (OATP1B3): 2.28 µM

Question: Which results are given for `CC(C)=CCC[C@](C)(O[C@@H]1O[C@H](CO[C@@H]2OC[C@H](O)[C@H](O)[C@H]2O)[C@@H](O)[C@H](O)[C@H]1O)[C@H]1CC[C@]2(C)[C@@H]1[C@H](O)C[C@@H]1[C@@]3(C)CC[C@H](O[C@@H]4O[C@H](CO)[C@@H](O)[C@H](O)[C@H]4O[C@@H]4O[C@H](CO)[C@@H](O)[C@H](O)[C@H]4O)C(C)(C)[C@@H]3CC[C@]12C` [Rb2, ginsenoside Rb2]?
Answer: fraction unbound at 4 h, 1 μM [1]: 0.001 ± 4e-08; fraction unbound at 4 h, 1 μM [2]: 0.004; maximum concentration in human blood [3]: 6.2 to 12.7 nM; IC50 (OATP1B3): 1.76 µM

Question: With `CC(C)=CCC[C@](C)(O[C@@H]1O[C@H](CO[C@@H]2O[C@@H](CO)[C@H](O)[C@H]2O)[C@@H](O)[C@H](O)[C@H]1O)[C@H]1CC[C@]2(C)[C@@H]1[C@H](O)C[C@@H]1[C@@]3(C)CC[C@H](O[C@@H]4O[C@H](CO)[C@@H](O)[C@H](O)[C@H]4O[C@@H]4O[C@H](CO)[C@@H](O)[C@H](O)[C@H]4O)C(C)(C)[C@@H]3CC[C@]12C` [Rc, ginsenoside Rc] as the compound, how does the fraction unbound at 4 h, 1 μM [1] read?
Answer: Its fraction unbound at 4 h, 1 μM is 0.001 ± 7.01e-08.

Question: And the fraction unbound at 4 h, 1 μM [2]?
Answer: Its fraction unbound at 4 h, 1 μM is 0.005.

Question: And the “maximum concentration in human blood” value [3]?
Answer: The value was 6.2 to 12.7 nM.

Question: And the IC50 (OATP1B3)?
Answer: Its IC50 is 1.36 µM.

Question: Which IC50 (OATP1B3) does the source give for `CC(C)=CCC[C@](C)(O[C@@H]1O[C@H](CO)[C@@H](O)[C@H](O)[C@H]1O)[C@H]1CC[C@]2(C)[C@@H]1[C@H](O)C[C@@H]1[C@@]3(C)CC[C@H](O[C@@H]4O[C@H](CO)[C@@H](O)[C@H](O)[C@H]4O[C@@H]4O[C@H](CO)[C@@H](O)[C@H](O)[C@H]4O)C(C)(C)[C@@H]3CC[C@]12C` [Rd, ginsenoside Rd] here?
Answer: The IC50 was 25.8 µM.

Question: Which results are given for `CC(C)=CCC[C@](C)(O[C@@H]1O[C@H](CO)[C@@H](O)[C@H](O)[C@H]1O)[C@H]1CC[C@]2(C)[C@@H]1[C@H](O)C[C@@H]1[C@@]3(C)CC[C@H](O)C(C)(C)[C@@H]3[C@@H](O[C@@H]3O[C@H](CO)[C@@H](O)[C@H](O)[C@H]3O[C@@H]3O[C@@H](C)[C@H](O)[C@@H](O)[C@H]3O)C[C@]12C` [Re, ginsenoside Re]?
Answer: IC50 UGT1A9 (UGT1A9): did not inhibit; IC50 (OATP1B3): > 100 µM; IC50 OATP1B3 (OATP1B3; [5]): did not inhibit

Question: What does the source list for `CC(C)=CCC[C@](C)(O[C@@H]1O[C@H](CO)[C@@H](O)[C@H](O)[C@H]1O)[C@H]1CC[C@]2(C)[C@@H]1[C@H](O)C[C@@H]1[C@@]3(C)CC[C@H](O)C(C)(C)[C@@H]3[C@@H](O[C@@H]3O[C@H](CO)[C@@H](O)[C@H](O)[C@H]3O)C[C@]12C` [Rg1, ginsenoside Rg1]?
Answer: IC50 UGT1A9 (UGT1A9): did not inhibit; IC50 (OATP1B3): > 100 µM; IC50 OATP1B3 (OATP1B3; [5]): did not inhibit

Question: With `CC(C)=CCC[C@](C)(O)[C@H]1CC[C@]2(C)[C@@H]1[C@H](O)C[C@@H]1[C@@]3(C)CC[C@H](O[C@@H]4O[C@H](CO)[C@@H](O)[C@H](O)[C@H]4O[C@@H]4O[C@H](CO)[C@@H](O)[C@H](O)[C@H]4O)C(C)(C)[C@@H]3CC[C@]12C` [Rg3, ginsenoside Rg3] as the compound, how does the IC50 (UGT1A9) read?
Answer: Its IC50 is 15.1 µM.

Question: What about the IC50 (OATP1B3; [4]) of the same compound?
Answer: The IC50 was 5.13 µM.

Question: For `CC(C)=CCC[C@](C)(O)[C@H]1CC[C@]2(C)[C@@H]1[C@H](O)C[C@@H]1[C@@]3(C)CC[C@H](O)C(C)(C)[C@@H]3[C@@H](O[C@@H]3O[C@H](CO)[C@@H](O)[C@H](O)[C@H]3O)C[C@]12C` [Rh1, ginsenoside Rh1], which IC50 (OATP1B3) is on record?
Answer: Its IC50 is greater than 100 µM.

Question: What about the “IC50 OATP1B3” value (OATP1B3; [5]) of the same compound?
Answer: Its value is “did not inhibit”.

Question: Which IC50 (OATP1B3) does the source give for `CC(C)=CCC[C@](C)(O)[C@H]1CC[C@]2(C)[C@@H]1[C@H](O)C[C@@H]1[C@@]3(C)CC[C@H](O[C@@H]4O[C@H](CO)[C@@H](O)[C@H](O)[C@H]4O)C(C)(C)[C@@H]3CC[C@]12C` [Rh2, ginsenoside Rh2] here?
Answer: The IC50 was 30.8 µM.
